Data set [1] concerns rabbits (New Zealand White species, male). In words: Test on the primary irritation of the skin. Conditions: for Evaluation Value For irritation: alone, shaved rabbit back, blocked 24 hours; for effect on the primary irritation of the skin when used in combination with the irritant: in comparison with the irritant used singly, rabbit. The data set is classed as in vivo, rabbit. The procedure:
Each back portion of rabbits (New Zealand White species, male) was shaved and each of the test compounds was applied thereto. Each of the test compound-applied portions was blocked for 24 hours, After 24, 48, 72 and 168 hours from the time of applying the test compound, the judgments were conducted for the erythema and edema appeared on the test compound-applied portion based on their standards indicated in table 1. The average evaluation value in each time at which the judgment was conducted was calculated (the value obtained by dividing the combined value of the evaluation value for erythema and that for edema by the number of animal used in the test). In addition, the average evaluation value in each time at which the judgment was conducted was all added up and the total value was divided by the number of judgment (4 times) to make the evaluation value of the primary initation.

For data set [2], the system named is an adult. Put plainly: Test in human on function of inhibiting erythema and irritation (tape-stripped forearm, protopic ointment). In kind it is in vivo. The settings on record: skin where the barrier function was reduced by tape stripping (30 times). On the procedure: A series of tests were conducted by an adult With respect to the function of inhibiting the skin erythema and irritation induced by an organic acid. A test solution of N, N′-diacetyl-L-cystine dimethyl ester dissolved in a 25% aqueous ethanol solution (the concentration of N, N′-diacetyl-L-cystine dimethyl ester; 10%) was prepared. A solution of only the solvents was separately prepared as control solution. 30 Times of tape stripping were conducted on the inward portion of the panelist's forearm. To the portion which the tape stripping procedures have been conducted was applied {circle over (2)} test solution (or control solution) in addition to {circle over (1)} control (any solvent is not applied). After 4 minutes, to each of the portions ({circle over (1)} control portion (both forearms) {circle over (2)} test solution-applied portion and {circle over (3)} control solution-applied portion) was applied protopic ointment (tacrolimus: 1 mg/g), and the erytherma and irritation appeared on each of the portions after an additional 5 minutes were evaluated. […] In the skin where the barrier function of the skin was reduced by tape stripping (30 times), erytherma and irritation caused by the protopic ointment were suppressed by N, N′-diacetyl-L-cystine dimethyl ester.

Data set [3] concerns adult men. In words: Test in human on function of inhibiting the irritation induced by an organic acid (test solution applied 3 minutes before glycolic acid). In kind it is in vivo. The settings on record: glycolic acid concentration: 10%. The procedure:
A series of tests were conducted by four adult men with respect to the function of inhibiting the irritation of the skin induced an organic acid. There were prepared a solution of glycolic acid dissolved in a 25% aqueous ethanol solution (the concentration of glycolic acid: 10%) and a test solution of N, N′-diacetyl-L-cystine dimethyl ester dissolved in the same solvents (the concentration of N, N′-diacetyl-L-cystine dimethyl ester: 10%). A solution of only the solvent was separately prepared as the control solution. After all of the panelists washed their faces, either test solution or control solution was applied to each right cheek of the their faces with a cotton bud. After additional 3 minutes, the glycolic acid solution was applied to the same portion as in the above and the irritation which each of the panelists felt was recorded as the score every a minute after a minute from the time of applying the glycolic acid solution for 10 minutes based on its evaluation standards shown below. […] After additional 3 minutes, the glycolic acid solution was applied to the same portion and the irritation which each of the panelists felt at the applied portion was similarly recorded as the score every a minute after a minute from the time of applying the glycolic acid solution for 10 minutes. […]

The test system of data set [4] is adult men. Put plainly: Test in human on function of inhibiting the irritation induced by an organic acid (solution B applied 4 minutes before glycolic acid solution A). In kind it is in vivo. The settings on record: glycolic acid concentration: 20%. On the procedure:
A series of tests were conducted by three adult men with respect to the function of inhibiting the irritation of the skin induced an organic acid. […] After all of the panelists washed their faces, solution B (or solution C) was applied to each right cheek (or each left cheek) of the their faces with a cotton bud. […] The irritation which each of the panelists felt at the solution-applied portion was recorded as the score every a minute after a minute from the time of applying the solution for 5 minutes based on its evaluation standards shown below. In addition, the function of the test compound (N, N′-diacetyl-L-cystine dimethyl ester) for inhibiting the irritation was judged based on the judging standards shown below.

Where [5] appears, read: concentration 3%, erythema + edema averaged over 24, 48, 72 and 168 hours.

Results on 6 molecules are retold here after patent US20040156802A1, “Cosmetics or external preparations for skin” (priority 2001, published 2004).

Values joined by “and” are separate entries in the source; they are usually repeats but may differ in a detail not shown here. Equal values may be shown once.

`CC(O)C(=O)O` (stereo not drawn) [Lactic acid]: the “Evaluation Value For irritation” value in data set [1] (concentration 70%, erythema + edema averaged over 24, 48, 72 and 168 hours) came out at 1.4.

Regarding `COC(=O)[C@H](CSSC[C@H](NC(C)=O)C(=O)OC)NC(C)=O` [N,N′-diacetyl-L-cystine dimethyl ester], the “effect on the primary irritation of the skin when used in combination with the irritant” value in data set [1] was “mitigates the primary irritation of the skin”. Besides, the “erythema and irritation caused by the protopic ointment” value in data set [2] was “suppressed”. The “inhibitory function in human toward irritation caused by glycolic acid” value in data set [3] and in data set [4] was “exhibited inhibitory function” in each case.

For the molecule `CCCCCCCC(=O)N[C@@H](CSSC[C@H](NC(=O)CCCCCCC)C(=O)OC)C(=O)OC` [N,N′-dioctanoyl-L-cystine dimethyl ester], in data set [1], the “effect on the primary irritation of the skin when used in combination with the irritant” value is listed as “mitigates the primary irritation of the skin”.

`CCCCCCCCCCCCOS(=O)(=O)[O-].[Na+]` [Sodium lauryl sulfate]: the “Evaluation Value For irritation” value in data set [1] (concentration 5%, erythema + edema (each 0-4) averaged over judgments at 24, 48, 72 and 168 hours, sulfate) was 6.6 and 6.4.

Regarding `CCCCCCCCCCCCCCCCCC[N+](C)(C)C.[Cl-]` [Stearyl trimethyl ammonium chloride], the “Evaluation Value For irritation” value in data set [1] (setting [5]) is on record as 3.7.

Regarding Benzalkonium chloride, the “Evaluation Value For irritation” value in data set [1] (setting [5]) is recorded as 5.3.
